According to patent EP3046573B1, “AMYLIN ANALOGUES” (Zealand Pharma A/S, priority 2013, dated 2015):
pEC50: −log10 of the molar value. Numbered stars: 1 amine (or outer) side, 2 acyl side, 3 side chain; on linkers, the order of the positions; unused ones are H or OH. Bridge positions count the residues as written; N and C are the ends. Square brackets hold non-standard residues; d marks the D form. Peptide text beside a SMILES is read from it. * marks the point of attachment. C16 diacid = O=C(O)CCCCCCCCCCCCCCC(=O)*; γGlu = O=C(O)[C@H](CCC(=O)[*:2])N[*:1]; Palmitoyl = CCCCCCCCCCCCCCCC(=O)*; NMeI = CC[C@H](C)[C@H](NC)C(=O)O; Myristoyl = CCCCCCCCCCCCCC(=O)*; Sar = CNCC(=O)O

Key:
[1] = biological target: T1, human calcitonin receptor (hCTR2) (Homo sapiens, UniProt P30988); experiment: hCTR2 assay: induction of cAMP (AlphaScreen cAMP Assay kit) in COS7 cells expressing hCTR2; type: cell-based
T1 construct: expressed in transfected cells
T1 sequence (P30988 25-474): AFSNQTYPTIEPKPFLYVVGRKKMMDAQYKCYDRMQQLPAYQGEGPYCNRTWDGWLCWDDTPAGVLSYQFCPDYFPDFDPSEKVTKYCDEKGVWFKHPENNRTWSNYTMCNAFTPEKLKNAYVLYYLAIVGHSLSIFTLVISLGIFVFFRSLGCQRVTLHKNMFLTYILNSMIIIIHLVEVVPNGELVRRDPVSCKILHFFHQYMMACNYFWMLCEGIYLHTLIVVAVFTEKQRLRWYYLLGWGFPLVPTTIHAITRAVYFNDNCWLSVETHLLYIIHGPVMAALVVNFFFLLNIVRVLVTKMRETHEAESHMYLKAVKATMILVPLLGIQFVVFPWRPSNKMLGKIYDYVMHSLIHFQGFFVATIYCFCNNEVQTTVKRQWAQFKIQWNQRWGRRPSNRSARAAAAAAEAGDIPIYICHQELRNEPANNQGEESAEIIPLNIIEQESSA
In short: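 cAMP induction was measured by AlphaScreen in COS7 cells stably expressing hCTR2 without RAMPs, after 15 min at 37° C with increasing peptide concentrations, 100 µM IBMX and 0.1% casein (Tyrode, pH 7.4). A 4-parameter logistic fit gave EC50 and % efficacy versus pramlintide.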

[2] = Solubility assessment (turbidity absorbance at 325 nm); type: physicochemical; conditions: stock 2 mg/ml diluted 1:1, ambient temperature (typically 25°C), n=1; for Solubility, Acetate buffer pH 4: 100 mM acetate buffer pH 4.0; for Solubility, Acetate buffer pH 5: 100 mM acetate buffer pH 5.0; for Solubility, Histidine buffer pH 6: 100 mM histidine buffer pH 6.0; for Solubility, Histidine buffer pH 7: 100 mM histidine buffer pH 7.0; for Solubility, Phosphate buffer pH 6: 100 mM phosphate buffer pH 6.0; for Solubility, Phosphate buffer pH 7: 100 mM phosphate buffer pH 7.0; for Solubility, Phosphate buffer pH 7.5: 100 mM phosphate buffer pH7.5
In short: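 Read-out: turbidity as absorbance at 325 nm (280 nm also read), single samples, ambient temperature of typically 25°C. Samples were a 1:1 mix of 2 mg/ml stock (water, pH 2.5) with 100 mM acetate, histidine or phosphate buffers spanning pH 4.0–7.5. Cut-off: A325 ≤ 0.02 indicates ≥ 1 mg/ml.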

| SMILES | pEC50 [1] | Solubility, Acetate buffer pH 4 [2] | Solubility, Acetate buffer pH 5 [2] | Solubility, Histidine buffer pH 6 [2] | Solubility, Histidine buffer pH 7 [2] | Solubility, Phosphate buffer pH 6 [2] | Solubility, Phosphate buffer pH 7 [2] | Solubility, Phosphate buffer pH 7.5 [2] |
| --- | --- | --- | --- | --- | --- | --- | --- | --- |
| CC[C@H](C)[C@@H](C(=O)N[C@@H](CC(C)C)C(=O)N[C@@H](CO)C(=O)N[C@@H](CO)C(=O)N[C@H](C(=O)N[C@@H](CC(N)=O)C(=O)N[C@H](C(=O)NCC(=O)N[C@@H](CO)C(=O)N[C@@H](CC(N)=O)C(=O)N[C@H](C(=O)N1CCC[C@H]1C(N)=O)[C@@H](C)O)C(C)C)[C@@H](C)O)N(C)C(=O)[C@H](C)NC(=O)CN(C)C(=O)[C@H](Cc1ccccc1)NC(=O)[C@H](CC(N)=O)NC(=O)[C@H](CC(N)=O)NC(=O)[C@H](CO)NC(=O)[C@H](CO)NC(=O)[C@H](CCCNC(=N)N)NC(=O)[C@H](Cc1c[nH]cn1)NC(=O)[C@H](CC(C)C)NC(=O)[C@H](Cc1ccccc1)NC(=O)[C@H](CCC(=O)O)NC(=O)[C@H](C)NC(=O)[C@H](CC(C)C)NC(=O)[C@H](CCCNC(=N)N)NC(=O)[C@H](CCC(N)=O)NC(=O)[C@@H](NC(=O)[C@H](C)NC(=O)[C@@H]1CSSC[C@H](NC(=O)[C@H](CCCNC(=N)N)NC(=O)CC[C@H](NC(=O)CCCCCCCCCCCCCCC(=O)O)C(=O)O)C(=O)N[C@@H](CC(N)=O)C(=O)N[C@@H]([C@@H](C)O)C(=O)N[C@@H](C)C(=O)N[C@@H]([C@@H](C)O)C(=O)N1)[C@@H](C)O [Compound 90, [15CD]-isoGlu-RC()NTATC()ATQRLAEFLHRSSNNF-Gly(Me)-A-Ile(Me)-LSSTNVGSNTP-NH2] ({C16 diacid-γGlu}-RCNTATCATQRLAEFLHRSSNNF[Sar]A[NMeI]LSSTNVGSNTP-NH2; disulfide 2-7) | 10.18 | SS (SS indicates solubility ≥ 1mg/ml) | SS (SS indicates solubility ≥ 1mg/ml) | SS (SS indicates solubility ≥ 1mg/ml) | SS (SS indicates solubility ≥ 1mg/ml) | SS (SS indicates solubility ≥ 1mg/ml) | SS (SS indicates solubility ≥ 1mg/ml) | SS (SS indicates solubility ≥ 1mg/ml) |
| CCCCCCCCCCCCCC(=O)N[C@@H](CCC(=O)N[C@@H](CCCNC(=N)N)C(=O)N[C@H]1CSSC[C@@H](C(=O)N[C@@H](C)C(=O)N[C@H](C(=O)N[C@@H](CCC(N)=O)C(=O)N[C@@H](CCCNC(=N)N)C(=O)N[C@@H](CC(C)C)C(=O)N[C@@H](C)C(=O)N[C@@H](CCC(=O)O)C(=O)N[C@@H](Cc2ccccc2)C(=O)N[C@@H](CC(C)C)C(=O)N[C@@H](Cc2c[nH]cn2)C(=O)N[C@@H](CCCNC(=N)N)C(=O)N[C@@H](CO)C(=O)N[C@@H](CO)C(=O)N[C@@H](CC(N)=O)C(=O)N[C@@H](CC(N)=O)C(=O)N[C@@H](Cc2ccccc2)C(=O)N(C)CC(=O)N[C@@H](C)C(=O)N(C)[C@H](C(=O)N[C@@H](CC(C)C)C(=O)N[C@@H](CO)C(=O)N[C@@H](CO)C(=O)N[C@H](C(=O)N[C@@H](CC(N)=O)C(=O)N[C@H](C(=O)NCC(=O)N[C@@H](CO)C(=O)N[C@@H](CC(N)=O)C(=O)N[C@H](C(=O)N2CCC[C@H]2C(N)=O)[C@@H](C)O)C(C)C)[C@@H](C)O)[C@@H](C)CC)[C@@H](C)O)NC(=O)[C@H]([C@@H](C)O)NC(=O)[C@H](C)NC(=O)[C@H]([C@@H](C)O)NC(=O)[C@H](CC(N)=O)NC1=O)C(=O)O [Compound 91, [Tetradecanoyl]-isoGlu-RC()NTATC()ATQRLAEFLHRSSNNF-Gly(Me)-A-Ile(Me)-LSSTNVGSNTP-NH2] ({Myristoyl-γGlu}-RCNTATCATQRLAEFLHRSSNNF[Sar]A[NMeI]LSSTNVGSNTP-NH2; disulfide 2-7) | 10.33 | SS (SS indicates solubility ≥ 1mg/ml) | SS (SS indicates solubility ≥ 1mg/ml) | SS (SS indicates solubility ≥ 1mg/ml) | SS (SS indicates solubility ≥ 1mg/ml) | SS (SS indicates solubility ≥ 1mg/ml) | SS (SS indicates solubility ≥ 1mg/ml) | SS (SS indicates solubility ≥ 1mg/ml) |
| CCCCCCCCCCCCCCCC(=O)N[C@@H](CCC(=O)N[C@@H](CCCNC(=N)N)C(=O)N[C@H]1CSSC[C@@H](C(=O)N[C@@H](C)C(=O)N[C@H](C(=O)N[C@@H](CCC(N)=O)C(=O)N[C@@H](CCCNC(=N)N)C(=O)N[C@@H](CC(C)C)C(=O)N[C@@H](C)C(=O)N[C@@H](CCC(=O)O)C(=O)N[C@@H](Cc2ccccc2)C(=O)N[C@@H](CC(C)C)C(=O)N[C@@H](Cc2c[nH]cn2)C(=O)N[C@@H](CCCNC(=N)N)C(=O)N[C@@H](CO)C(=O)N[C@@H](CO)C(=O)N[C@@H](CC(N)=O)C(=O)N[C@@H](CC(N)=O)C(=O)N[C@@H](Cc2ccccc2)C(=O)N(C)CC(=O)N[C@@H](C)C(=O)N(C)[C@H](C(=O)N[C@@H](CC(C)C)C(=O)N[C@@H](CO)C(=O)N[C@@H](CO)C(=O)N[C@H](C(=O)N[C@@H](CC(N)=O)C(=O)N[C@H](C(=O)NCC(=O)N[C@@H](CO)C(=O)N[C@@H](CC(N)=O)C(=O)N[C@H](C(=O)N2CCC[C@H]2C(N)=O)[C@@H](C)O)C(C)C)[C@@H](C)O)[C@@H](C)CC)[C@@H](C)O)NC(=O)[C@H]([C@@H](C)O)NC(=O)[C@H](C)NC(=O)[C@H]([C@@H](C)O)NC(=O)[C@H](CC(N)=O)NC1=O)C(=O)O [Compound 92, [Hexadecanoyl]-isoGlu-RC()NTATC()ATQRLAEFLHRSSNNF-Gly(Me)-A-Ile(Me)-LSSTNVGSNTP-NH2] ({Palmitoyl-γGlu}-RCNTATCATQRLAEFLHRSSNNF[Sar]A[NMeI]LSSTNVGSNTP-NH2; disulfide 2-7) | 10.27 | SS (SS indicates solubility ≥ 1mg/ml) | SS (SS indicates solubility ≥ 1mg/ml) | SS (SS indicates solubility ≥ 1mg/ml) | SS (SS indicates solubility ≥ 1mg/ml) | SS (SS indicates solubility ≥ 1mg/ml) | SS (SS indicates solubility ≥ 1mg/ml) | SS (SS indicates solubility ≥ 1mg/ml) |
